# Experimental data reported in ChEMBL document CHEMBL1201862, “PubChem BioAssay data set” (2004).
#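 1) Cells in 96-well plates. 2) Compound, 48 h, 5 concentrations. 3) Linear interpolation between surrounding doses. 4) Unreached endpoint = highest concentration. GI50 marks 50% less growth.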 Calls of active or inactive are those of the source. Cut-off read from the data, not from the text of the source: active = GI50 up to about 1.1 µM and inactive = higher.
# Key:
# Test in all cases: NCI anticancer screen, dose series, 48 h
# 786-0 = test system: 786-0
# A549 = test system: A549
# ACHN = test system: ACHN
# CCRF-CEM = test system: CCRF-CEM
# COLO 205 = test system: COLO 205
# DU-145 = test system: DU-145
# EKVX = test system: EKVX
# HCT-116 = test system: HCT-116
# HCT-15 = test system: HCT-15
# HOP-62 = test system: HOP-62
# HT-29 = test system: HT-29
# Hs-578T = test system: Hs-578T
# IGROV-1 = test system: IGROV-1
# K562 = test system: K562
# KM12 = test system: KM12
# LOX IMVI = test system: LOX IMVI
# M14 = test system: M14
# MCF7 = test system: MCF7
# MDA-MB-231 = test system: MDA-MB-231
# MDA-MB-435 = test system: MDA-MB-435
# MDA-N = test system: MDA-N
# MOLT-4 = test system: MOLT-4
# Malme-3M = test system: Malme-3M
# NCI-H226 = test system: NCI-H226
# NCI-H23 = test system: NCI-H23
# NCI/ADR-RES = test system: NCI/ADR-RES
# OVCAR-3 = test system: OVCAR-3
# OVCAR-4 = test system: OVCAR-4
# OVCAR-5 = test system: OVCAR-5
# OVCAR-8 = test system: OVCAR-8
# PC-3 = test system: PC-3
# RPMI-8226 = test system: RPMI-8226
# SF-268 = test system: SF-268
# SF-295 = test system: SF-295
# SK-MEL-28 = test system: SK-MEL-28
# SK-MEL-2 = test system: SK-MEL-2
# SK-MEL-5 = test system: SK-MEL-5
# SK-OV-3 = test system: SK-OV-3
# SN12C = test system: SN12C
# SNB-19 = test system: SNB-19
# SNB-75 = test system: SNB-75
# SR = test system: SR
# SW-620 = test system: SW-620
# TK-10 = test system: TK-10
# U-251 = test system: U-251
# UACC-257 = test system: UACC-257
# UACC-62 = test system: UACC-62
# UO-31 = test system: UO-31
# CAKI-1 = test system: CAKI-1
# HOP-92 = test system: HOP-92
# RXF 393 = test system: RXF 393
# SF-539 = test system: SF-539
# HCC 2998 = test system: HCC 2998
# HL-60 = test system: HL-60
# NCI-H460 = test system: NCI-H460
# NCI-H522 = test system: NCI-H522
# T47D = test system: T47D
smiles,measurement,setting,value
CC(C)CC1[C@@H](OCc2ccccc2)COS(=O)N1Cc1ccccc1 (stereo not given in full),GI50,786-0,31.2 µM (inactive)
same,GI50,A549,46.6 µM (inactive)
same,GI50,ACHN,35 µM (inactive)
same,GI50,CCRF-CEM,57.1 µM (inactive)
same,GI50,COLO 205,57 µM (inactive)
same,GI50,DU-145,35.6 µM (inactive)
same,GI50,EKVX,38.8 µM (inactive)
same,GI50,HCT-116,28.2 µM (inactive)
same,GI50,HCT-15,30.8 µM
same,GI50,HOP-62,56.6 µM (inactive)
same,GI50,HT-29,15.6 µM (inactive)
same,GI50,Hs-578T,23.9 µM (inactive)
same,GI50,IGROV-1,31 µM (inactive)
same,GI50,K562,39.4 µM (inactive)
same,GI50,KM12,26.8 µM (inactive)
same,GI50,LOX IMVI,24.8 µM (inactive)
same,GI50,M14,51.4 µM (inactive)
same,GI50,MCF7,41.9 µM (inactive)
same,GI50,MDA-MB-231,20.7 µM (inactive)
same,GI50,MDA-MB-435,31.5 µM (inactive)
same,GI50,MDA-N,52.8 µM (inactive)
same,GI50,MOLT-4,37 µM (inactive)
same,GI50,Malme-3M,23.3 µM (inactive)
same,GI50,NCI-H226,47.1 µM (inactive)
same,GI50,NCI-H23,39.6 µM (inactive)
same,GI50,NCI/ADR-RES,49.4 µM (inactive)
same,GI50,OVCAR-3,54.2 µM (inactive)
same,GI50,OVCAR-4,44.2 µM (inactive)
same,GI50,OVCAR-5,> 100 µM (inactive)
same,GI50,OVCAR-8,39 µM (inactive)
same,GI50,PC-3,30.1 µM (inactive)
same,GI50,RPMI-8226,20.8 µM (inactive)
same,GI50,SF-268,32.6 µM (inactive)
same,GI50,SF-295,46.2 µM (inactive)
same,GI50,SK-MEL-28,51.3 µM (inactive)
same,GI50,SK-MEL-2,31 µM (inactive)
same,GI50,SK-MEL-5,33.5 µM (inactive)
same,GI50,SK-OV-3,> 100 µM (inactive)
same,GI50,SN12C,57.8 µM (inactive)
same,GI50,SNB-19,41.7 µM (inactive)
same,GI50,SNB-75,21.5 µM (inactive)
same,GI50,SR,19.9 µM (inactive)
same,GI50,SW-620,39.8 µM (inactive)
same,GI50,TK-10,40 µM (inactive)
same,GI50,U-251,29.9 µM (inactive)
same,GI50,UACC-257,30.7 µM (inactive)
same,GI50,UACC-62,60 µM (inactive)
same,GI50,UO-31,34.6 µM (inactive)
CC1(C)CC(=O)C2=C(C1)OC1=C(C(=O)CC(C)(C)C1)C2CC(c1ccccc1)c1ccc(O)c(O)c1O (stereo not given),GI50,A549,3.73 µM (inactive)
same,GI50,ACHN,> 10 µM (inactive)
same,GI50,CAKI-1,5.11 µM (inactive)
same,GI50,DU-145,> 10 µM (inactive)
same,GI50,EKVX,> 10 µM (inactive)
same,GI50,HCT-116,8.81 µM (inactive)
same,GI50,HCT-15,4.18 µM
same,GI50,HOP-92,5.18 µM (inactive)
same,GI50,HT-29,3.04 µM (inactive)
same,GI50,IGROV-1,> 10 µM (inactive)
same,GI50,KM12,3.41 µM (inactive)
same,GI50,M14,9.91 µM (inactive)
same,GI50,MDA-MB-231,8.91 µM (inactive)
same,GI50,MDA-MB-435,8.13 µM (inactive)
same,GI50,MDA-N,> 10 µM (inactive)
same,GI50,NCI-H226,> 10 µM (inactive)
same,GI50,NCI-H23,5.9 µM (inactive)
same,GI50,NCI/ADR-RES,> 10 µM (inactive)
same,GI50,OVCAR-3,3.54 µM (inactive)
same,GI50,OVCAR-4,6.38 µM (inactive)
same,GI50,OVCAR-5,> 10 µM (inactive)
same,GI50,OVCAR-8,> 10 µM (inactive)
same,GI50,PC-3,2.87 µM (inactive)
same,GI50,RXF 393,> 10 µM (inactive)
same,GI50,SF-268,> 10 µM (inactive)
same,GI50,SF-295,3.96 µM (inactive)
same,GI50,SF-539,> 10 µM (inactive)
same,GI50,SK-MEL-5,5.68 µM (inactive)
same,GI50,SN12C,> 10 µM (inactive)
same,GI50,SNB-19,> 10 µM (inactive)
same,GI50,SNB-75,3.05 µM (inactive)
same,GI50,SW-620,3.36 µM (inactive)
same,GI50,TK-10,> 10 µM (inactive)
same,GI50,U-251,> 10 µM (inactive)
same,GI50,UO-31,> 10 µM (inactive)
Cc1cc(=O)oc2cc(OCC(O)COC(C)C)ccc12 (stereo not given),GI50,786-0,> 100 µM (inactive)
same,GI50,A549,> 100 µM (inactive)
same,GI50,ACHN,> 100 µM (inactive)
same,GI50,CAKI-1,> 100 µM (inactive)
same,GI50,CCRF-CEM,> 100 µM (inactive)
same,GI50,COLO 205,> 100 µM (inactive)
same,GI50,DU-145,> 100 µM (inactive)
same,GI50,EKVX,> 100 µM (inactive)
same,GI50,HCC 2998,> 100 µM (inactive)
same,GI50,HCT-116,> 100 µM (inactive)
same,GI50,HCT-15,> 100 µM
same,GI50,HL-60,> 100 µM (inactive)
same,GI50,HOP-62,> 100 µM (inactive)
same,GI50,HOP-92,80.9 µM (inactive)
same,GI50,HT-29,> 100 µM (inactive)
same,GI50,Hs-578T,97.1 µM (inactive)
same,GI50,IGROV-1,> 100 µM (inactive)
same,GI50,K562,> 100 µM (inactive)
same,GI50,KM12,> 100 µM (inactive)
same,GI50,LOX IMVI,88.3 µM (inactive)
same,GI50,M14,> 100 µM (inactive)
same,GI50,MCF7,> 100 µM (inactive)
same,GI50,MDA-MB-231,> 100 µM (inactive)
same,GI50,MDA-N,91.4 µM (inactive)
same,GI50,MOLT-4,> 100 µM (inactive)
same,GI50,Malme-3M,> 100 µM (inactive)
same,GI50,NCI-H23,> 100 µM (inactive)
same,GI50,NCI-H460,> 100 µM (inactive)
same,GI50,NCI-H522,> 100 µM (inactive)
same,GI50,NCI/ADR-RES,> 100 µM (inactive)
same,GI50,OVCAR-3,> 100 µM (inactive)
same,GI50,OVCAR-4,59.2 µM (inactive)
same,GI50,OVCAR-5,> 100 µM (inactive)
same,GI50,OVCAR-8,> 100 µM (inactive)
same,GI50,PC-3,> 100 µM (inactive)
same,GI50,RPMI-8226,> 100 µM (inactive)
same,GI50,SF-268,> 100 µM (inactive)
same,GI50,SF-295,> 100 µM (inactive)
same,GI50,SK-MEL-28,> 100 µM (inactive)
same,GI50,SK-MEL-5,> 100 µM (inactive)
same,GI50,SK-OV-3,> 100 µM (inactive)
same,GI50,SN12C,> 100 µM (inactive)
same,GI50,SNB-19,> 100 µM (inactive)
same,GI50,SNB-75,> 100 µM (inactive)
same,GI50,SR,> 100 µM (inactive)
same,GI50,SW-620,99.1 µM (inactive)
same,GI50,T47D,> 100 µM (inactive)
same,GI50,TK-10,> 100 µM (inactive)
same,GI50,U-251,> 100 µM (inactive)
same,GI50,UACC-257,> 100 µM (inactive)
same,GI50,UACC-62,> 100 µM (inactive)
same,GI50,UO-31,> 100 µM (inactive)
